In US20190336579A1, “COMPOSITIONS AND METHODS TO INDUCE TARGETED APOPTOSIS BY MODULATING PROTEIN TYROSINE PHOSPHATASE 13 (PTPN13)” (National Jewish Health, priority 2010, published 2019):

Columns and labels:
[1] = Bleomycin murine model of fibrosis, mortality; format: in vivo, mice; settings: 2.5 U/kg bleomycin into the trachea
Protocol: To assess the effect of PTPN13 on development of fibrosis in vivo, we used a murine model of fibrosis in a PTPN13−/− mouse. The PTPN13−/− mouse has been characterized by Grusby to have abnormal STAT4 signaling which leads to augmented skewing toward TH1 or TH2 phenotypes. 2.5 U/kg bleomycin was administered directly into the tracheas of PTPN13−/− mice along with wildtype controls. […] Due to drastic weight decreases in the wildtype mice, two weeks was chosen as the end time point. […] Of the 20 wildtype mice treated with bleomycin, 11 (55%) died before two weeks as compared to the PTPN13−/− mice where three of the 20 (15%) died. Saline had no effect on mortality. Then static compliance was measured. […] Collagen content was measured in the lung using a hydroxyproline assay. […] To determine a possible cause for the decreased static compliance in the PTPN13−/− mice, we also measured other markers of lung disease, such as cellular infiltration and capillary leak. We measured the cellularity of the bronchoalveolar fluid (BALF). […] Capillary leak was determined by albumin present in the BALF (FIG. 6F). […] To validate these findings, stereology was performed on lung sections to quantify presence of collagen and diseased areas. […] Percentage of diseased lung was also measured by stereology. […]
FIG. 6: Deficiency of PTPN13−/− Leads to Decreased Bleomycin-induced Lung Fibrosis. […] Collagen content as measured by stereology. […]

PTPN13 mRNA = PTPN13 mRNA expression by quantitative PCR in lung fibroblasts; format: cell-based, human; settings: NHLF, FHLF and MRC5 cells; TNF-α 10 ng/ml, IFN-γ 50 U/ml; 6 hours; compared to untreated cells
Protocol: (§1) To assess the effects of these cytokines on PTPN13 expression, non-diseased normal human lung fibroblasts (NHLF), fibrotic human lung fibroblasts (FHLF) and a fetal lung fibroblast cell line, MRC5 cells, were treated with TNF-α (10/ng/ml), IFN-γ (50 U/ml) or with both cytokines for 6 hours. PTPN13 expression was measured by quantitative PCR (FIG. 2A). The primary lung fibroblasts from normal and fibrotic lung had equivalent levels of PTPN13 expression to the MRC5 lung fibroblast cell line. […] Treatment with TNF-α alone caused a 40% decrease in PTPN13 expression. Combined exposure to TNF-α and IFN-γ decreased PTPN13 mRNA expression by 80%. Protein lysates from normal, fibrotic and MRC5 fibroblasts treated for 36 hours with TNF-α (10/ng/ml), IFN-γ (50 U/ml) or with both cytokines were then analyzed for PTPN13 expression. […]
FIG. 2: TNF-α and IFN-γ decrease PTPN13 expression. […] Top panel is a quantitative RT-PCR analysis of PTPN13 mRNA lower panel is a Western blot analysis for PTPN13 protein. […] Caspase-8 was measured using a fluorescence based assay.
Total RNA was obtained from 1×10^6 MRC5 cells using the Qiagen RNA Miniprep Kit (Qiagen) following the manufacturer's instructions. […] The fluorescence values of the threshold cycles were collected and normalized to GAPDH. Data are expressed as the relative change in mRNA expression compared to the untreated control.

PTPN13 protein = PTPN13 protein expression by Western blot in lung fibroblasts; format: cell-based, human; settings: normal, fibrotic and MRC5 fibroblasts; TNF-α 10 ng/ml, IFN-γ 50 U/ml; 36 hours
Protocol: as §1
In one exemplary method, to assess whether PTPN13 expression prevents Fas-induced apoptosis, PTPN13 expression was knocked-down using siRNA. […] Apoptosis was assayed by quantifying activation of caspase-3 and caspase-8 (FIG. 3C).
FIG. 3: Decreased PTPN13 expression sensitizes fibroblasts to Fas-induced apoptosis. […] PTPN13 expression was quantified by western blot analysis and densitometry was performed. […] Fas activating antibody (250 ng/ml) (Fas activating antibody) or PBS (unstimulated) was added for 2 hours before analyzing Caspase-8 activation by a fluorescence-based assay. […]

Row | Substance | mortality before two weeks ([1]; PTPN13−/− mice, three of 20 died) [%] | mortality before two weeks ([1]; wildtype mice, 11 of 20 died) [%] | decrease in PTPN13 mRNA expression (PTPN13 mRNA) | PTPN13 protein expression (Western blot) (PTPN13 protein)
1 | bleomycin | 15 | 55 | – | –
2 | TNF-α | – | – | 40% | decreased
3 | IFN-γ: Recombinant human IFN-γ purchased from R&D Systems | – | – | minimal decrease | not decreased
